Laboratory results: patent publication US20220397573A1, “Biomolecular Detection Device” (Hoffmann-La Roche Inc., priority 2019, published 2022)

Test system: off-target adenosine receptors
Assay: Cross-sensitivity test: stimulation of off-target receptors in HEK293 cells on the biomolecular detection device
Format: cell-based
Conditions: 5 μM NECA, FIG. 6a
Protocol: SNAP-β2AR cells were grown to 60-80% confluency in T25 culture flasks, washed twice with warm phosphate-buffered saline (PBS), incubated with 1× Versene for 5 min and resuspended in cell culture medium. In order to decrease baseline signal contributions from non-functional cellular debris, the cells were centrifuged at 50 rpm for 1 min and resuspended in culture media two times sequentially. The cells were seeded to reach confluency on the waveguide in an incubation chamber containing 500 μl cell culture media. Cells were only seeded when viability exceeded 90%, as determined by a Countess automated cell counter (Invitrogen). Except for the real-time establishment of the transmembrane nanopattern, seeded cells were kept in a CO2 incubator at 37° C. for 2 h to allow cells adherence to the sensor chip (and covalent interaction of the SNAP-tag on the β2AR with the SNAP-tag substrate on the chip). The incubation chamber containing the cells was then washed twice with warm HBSS buffer (supplemented with 20 mM HEPES, pH 7.4) adjusted for DMSO and transferred to a modified F3000 ZeptoReader (Zeptosens) which was kept at 35° C. […] For all assays, the signal was monitored for 7 min (baseline measurement) before careful substitution of the buffer with buffer containing the β2AR ligand and monitored for another 21 min thereafter. […]

In the case of CCNC(=O)[C@H]1O[C@@H](n2cnc3c(N)ncnc32)[C@H](O)[C@@H]1O [NECA], the “signal (mass increase at the receptor relative to the initial mass) upon off-target stimulation” value is reported as “no significant signal change”.
